Measured values as given in US8821568B2, “Implant modified with non-hydroxylated vitamin D precursors” (Numat Biomedical S.L., priority 2008, dated 2014).
Entries after “also recorded” stand apart in the source; their conditions may differ.

Experiments:
Assay type in all cases: cell-based, mouse
[1] = tested on: MC3T3-E1 cells; experiment: Cell number (DNA content) and cell covered surface on coated titanium implants; settings: Ti implants, 48 h
Description: Cells growing on the different surfaces were lysed after 48 hours of cell culture by a freeze-thaw method in deionized distilled water. Cell lysates were used for determination of DNA quantity using Hoechst 33258 fluorescence assay. Samples were mixed with 20 μg/ml of Hoechst 33258 fluorescence stain (Sigma, St. Quentin Fallavier, France) in THE buffer at pH 7.4 containing 10 mM Tris-HCl, 1 mM EDTA and 2 M NaCl. The intensity of fluorescence was measured at excitation and emission wavelengths of 356/465 nm using a multifunction microplate reader (Cary Eclipse fluorescence spectrophotometer, Agilent Technologies, Santa Clara, United States). Relative fluorescence units were correlated with the cell number using a linear standard curve.
Confocal images were obtained of cells growing in the different treated surfaces at 48 hours of cell culture. […] Various images of each implant were taken with the confocal microscope (Leica DMI 4000B equipped with Leica TCS SPE laser system) by measuring fluorescence signal between 430-480 nm for DAPI and 500-525 nm for Phalloiding-FITC. […]
Quantitation of the percentage of titanium surface covered with MC3T3-E1cells was achieved by analyzing the previous images with ImageJ software (Rasband, W. S., ImageJ, U. S. National Institutes of Health, Bethesda, Md., USA).

[2] = tested on: MC3T3-E1 cells; experiment: ELISA of 25-D3 released to the culture media, coated titanium implants; settings: Ti implants; 0.2 nmols; 48 h; UV exposure 15 minutes; vs ethanol-treated Ti samples
Description: (§1) To test the effect of the surface modification, 96-well plates were used. Ti disks were placed into the wells and treatments and UV-activation were performed over there. Cells grown onto untreated polystyrene tissue culture plastic (TCP) were added as a control for all the experiments. Cells were seeded at a density of 30,000 cells/cm^2 and they were maintained in α-MEM supplemented with 10% FCS and antibiotics. Culture media was collected after 48 hours, to test cytotoxicity and the production of the hydroxylated form of vitamin D, 25-D3. Cells were harvested after two days of culture using Trizol reagent (Roche Diagnostics, Mannheim, Germany), to analyze gene expression of several osteoblast differentiation markers and enzymes involved in vitamin D synthesis using real-time RT-PCR. On the other hand, MC3T3-E1 cells were harvested after 21 days to measure calcium content and ALP activity in the cell monolayer.
25-D3 released to the culture media after 2 days of treatment were analyzed by enzyme-linked immunosorbent assay (ELISA). Aliquots from the culture media were centrifuged at 1800 rpm for 5 minutes at 4° C. and supernatants were used for 25-D3 and determination following instructions described by the manufacturer (Immunodiagnostic Systems Ltd, Boldon, Tyne and Wear, UK).

[3] = tested on: MC3T3-E1 cells; experiment: Real-time RT-PCR of osteoblast differentiation markers, coated titanium implants; settings: Ti implants, 48 h
Description: as §1
RNA was isolated from cells using a monophasic solution of phenol and guanidine thiocyanate (Trizol, Roche Diagnostics, Mannheim, Germany) according to the manufacturer's protocol. RNA was quantified at 260 nm using a Nanodrop spectrophotometer (NanoDrop Technologies, Wilmington, Del., USA).
Total RNA previously isolated was reverse-transcribed to cDNA using High Capacity RNA to cDNA kit (Applied Biosystems, Foster City, Calif.) according to the protocol of the supplier. The same amount of total RNA from each sample was converted into cDNA. Each cDNA was diluted ¼ and aliquots were stored at −20° C. until the PCR reactions were carried out.
Real-time RT-PCR was performed for two reference genes: 18S ribosomal RNA (18S rRNA), glyceraldehyde-3-phosphate dehydrogenase (GAPDH); and eleven target genes: alkaline phosphathase (ALP), Interleukin 6 (IL-6), Collagen (Coll-1), Osteocalcin (OC), Bone Morphogenetic Protein 2 (BMP-2), Osterix (Osx), Receptor activator of nuclear factor kappa-B ligand (RANKL), Osteoprogesterin (OPG) and genes involved in vitamin D synthesis such as Vitamin D3 25-hydroxylase (CYP27A1) and 25 hydroxyvitamin D3-1-alpha hydroxylase (CYP27B1). Real-time PCR were performed in the Lightcycler 480® (Roche Diagnostics, Germany). Each reaction contained 5 μl of LightCycler-FastStart DNA Master^PLUS SYBR Green I (Roche Diagnostics, Mannheim, Germany), 0.5 μM of the sense and antisense specific primers (Table 1) and 3 μl of the cDNA dilution in a final volume of 10 μl. The normal amplification program consisted of a preincubation step for denaturation of the template cDNA (10 min 95° C.), followed by 45 cycles consisting of a denaturation step (10 s 95° C.), an annealing step (10 s 60° C., except for ALP that was 10 s at 65° C., OSX with 10 s at 68° C.) and an extension step (10 s 72° C.). After each cycle, fluorescence was measured at 72° C. Every run included a negative control without cDNA template. To confirm amplification specificity, PCR products were subjected to a melting curve analysis on the LightCycler and subsequently 2% agarose/TAE gel electrophoresis, Tm and amplicon size, respectively.
To allow relative quantification after PCR, real-time efficiencies were calculated from the given slopes in the LightCycler 480 software (Roche Diagnostics, Mannheim, Germany) using serial dilutions. Relative quantification after PCR was calculated by normalizing target gene concentration in each sample by the concentration mean of the two reference genes in given sample using the Advanced relative quantification method provided by the LightCycler 480 analysis software.

With CC(C)CCC[C@@H](C)[C@H]1CC[C@H]2C3=CC=C4C[C@@H](O)CC[C@]4(C)[C@H]3CC[C@]12C [7-DHC, 7-dehydrocholesterol] the “Cell number (DNA content)” value ([1]; 30 minutes of UV irradiation vs UV-untreated) was “significantly higher amount of cells”, the “Percentage of implant surface covered with cells” value ([1]; 30 minutes of UV irradiation vs without irradiation) was “significant greatest percentage” and the “25-D3 secretion to the cell culture media” value [2] was “increased 25-hydroxyvitamin D3 (25-D3) production”. For the same compound, the “RANKL mRNA expression” value ([3]; 2×10^−2 nmols and 0.2 nmols, UV 15 minutes vs UV-untreated) was “significant decrease”, the “RANKL mRNA levels” value ([3]; 10 minutes UV-exposed, compared to ethanol) was “statistical significant increase” and the “OPG mRNA levels” value ([3]; 30 min UV-exposed) was “decrease”. The “RANKL mRNA levels” value ([3]; 30 minutes UV-exposed) was “significant decrease”, the “ALP mRNA levels” value ([3]; UV irradiated vs ethanol and UV-treated groups, significant at 30 minutes) was “higher ALP mRNA levels” and the “OC mRNA levels” value ([3]; UV-exposed for 15 min) was “tendency to increased OC mRNA levels”. For the same compound, the RANKL gene expression ([3]; all UV-treated groups (2×10^−2, 0.2, 2 nmols; 15 minutes) compared to control) was “Statistical significances; also recorded: significantly reduced”, the “OSX mRNA levels” value ([3]; between all the groups, only significant at 10 minutes of UV exposure) was “very similar” and the “BMP-2 mRNA levels” value ([3]; when exposed to UV) was “No statistical differences”. For the same compound, the “IL-6 mRNA levels” value ([3]; when exposed to UV) was “No statistical differences” and the “Collagen type-1 gene expression” value ([3]; with UV exposure time, significant at 15 and 30 minutes) was “trend to decrease”.
